# Results published in PMC7734574 (International Journal of Molecular Sciences, 2020).
# Like-named read-outs stand apart in the source and are kept apart here.
# Legend:
# [1] = thermal back isomerization (half-life of the metastable form) by UV/VIS spectroscopy; assay type: physicochemical; settings: 37 °C, DMSO (UV/VIS)
# Experimental: For the meta-linked derivative 3 (Figure 6a), a maximum shift of the PSS toward the Z-isomer can be achieved by irradiation at 365 nm. By NMR spectroscopy, a Z-isomer content of 83% was determined in the PSS. […] Back switching to the E-isomers E-3 and E-4 is possible by irradiation at 435 nm (3) or 470 nm (4), respectively. Furthermore, half-lives of the azobenzene derivatives were determined by UV/VIS spectroscopy at 37 °C in DMSO.
# (§1) UV/VIS spectra were measured using a Varian Cary® 50 Scan UV/VIS photometer from Agilent (Waldbronn, Germany) equipped with a Varian Cary PCB 150 thermostat either at 25 °C or 37 °C. […] The fitting of thermal relaxations was done with GraphPad Prism® (v.7.03, GraphPad Software, San Diego, CA, USA).
# [2] = target: T1, VEGFR-2 (purified kinase domain, KDR active) (Homo sapiens, UniProt P35968); test: luminescence-based ADP-Glo kinase assay under controlled light conditions; assay type: biochemical; set-up: VEGFR-2 (purified kinase domain, KDR active, Promega); purchased Promega
# [3] = isomer ratio of the photostationary state by NMR spectroscopy; assay type: physicochemical
# Excerpt: (§2) In order to determine the isomer ratios of the PSS as well as to identify the optimal excitation wavelengths for the E/Z isomerizations, compounds 3–7 were characterized by UV/VIS and NMR spectroscopy. Due to their poor water solubility along with the low molar absorption coefficients of diazocines, all compounds were initially analyzed in DMSO.
# [4] = test system: lysates of human umbilical vein endothelial cells (HUVECs); test: kinome activity profiling (PamGene) of treated cell lysate; assay type: biochemical; settings: 20 µM, irradiated at 405 nm, HUVEC lysate, 10% DMSO
# [5] = photoswitching followed by UV/VIS spectroscopy; assay type: physicochemical; settings: for photoconversion on back switching to the E-isomer: DMSO
# Excerpt: as §2
# By irradiation at 530 nm, the diazocine-based compounds 5–7 can be switched back quantitatively to the Z-isomer. Since the associated spectra completely overlap with the spectra of the pure Z-isomers, they are not shown for reasons of clarity. To check the reversibility of the photoswitching, long-term stability measurements with 20 switching cycles were performed. For this purpose, the compounds were irradiated alternately for 20 s at 405 nm and 530 nm, respectively. After each irradiation, an UV/VIS spectrum was recorded.
# as §1
# [6] = target: T1, VEGFR-2 (purified kinase domain, KDR active); settings: cited from earlier work
# [7] = axitinib, DMSO (NMR), cited from earlier work
# [8] = PSS after irradiation at 405 nm, 10% DMSO
# [9] = Z-isomer, in the dark (unirradiated), 10% DMSO
# [10] = after irradiation at 405 nm, 10% DMSO
# [11] = DMSO (NMR), irradiation at 405 nm
# [12] = E-isomer, in the dark (unirradiated), 1% DMSO
# [13] = both irradiated and unirradiated compounds
# [14] = DMSO, NMR, irradiation at 365 nm
# T1 sequence (P35968 834-1162 limits assumed): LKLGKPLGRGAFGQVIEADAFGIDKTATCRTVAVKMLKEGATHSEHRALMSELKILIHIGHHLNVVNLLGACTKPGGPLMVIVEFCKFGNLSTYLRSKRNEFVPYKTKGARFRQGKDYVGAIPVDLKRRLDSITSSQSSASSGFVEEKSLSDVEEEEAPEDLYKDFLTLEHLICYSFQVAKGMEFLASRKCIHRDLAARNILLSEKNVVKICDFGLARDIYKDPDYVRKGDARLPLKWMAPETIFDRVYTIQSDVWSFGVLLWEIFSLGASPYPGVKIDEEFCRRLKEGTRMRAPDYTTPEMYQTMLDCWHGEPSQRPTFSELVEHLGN
smiles,measurement,setting,value
"CNC(=O)c1ccccc1Sc1ccc2c(-c3ccc4c(c3)/N=N\c3ccccc3SC4)n[nH]c2c1 [Compound 5, (Z)‐2‐((3‐(12H‐dibenzo[b,f][1,4,5]thiadiazocin‐3‐yl)‐1H‐indazol‐6‐yl)thio)‐N‐methylbenzamide]",k of exponential fit of thermal back isomerization,[1],0.09514
same,IC50,[2]; [8],0.214 µM
same,IC50,[2]; [9],> 10 µM
same,residual activity (plateau),[2]; [10],6%
same,PSS (E/Z%),[3]; [11],47/53
same,kinase activities (phosphorylation degree of substrate peptides) compared to DMSO,[4],moderate decrease of kinase activities
"CNC(=O)c1ccccc1Sc1ccc2c(-c3ccc4c(c3)/N=N\c3ccccc3CC4)n[nH]c2c1 [Compound 7, (Z)‐2‐((3‐(11,12‐dihydrodibenzo[c,g][1,2]diazocin‐3‐yl)‐1H‐indazol‐6‐yl)thio)‐N‐methylbenzamide]",k of exponential fit of thermal back isomerization,[1],0.4711
same,IC50,[2]; [8],0.493 µM
same,residual activity,"[2]; Z-isomer in the dark, 10% DMSO",≥ 37%
same,PSS (E/Z%),[3]; [11],60/40
same,E-isomer content in the PSS,"[3]; DMSO, irradiation at 405 nm",60%
"CNC(=O)c1ccccc1Sc1ccc2c(-c3ccc(/N=N/c4ccccc4)cc3)n[nH]c2c1 [Compound 4, (E)‐N‐methyl‐2‐((3‐(4‐(phenyldiazenyl)phenyl)‐1H‐indazol‐6‐yl)thio) benzamide]",k of exponential fit of thermal back isomerization,[1],0.121
same,residual activity (plateau),[2]; E-isomer in the dark,43%
same,IC50,[2]; [12],1.02 µM
same,IC50,"[2]; PSS after irradiation at 385 nm, 1% DMSO",1.44 µM
same,residual activity (plateau),[2]; after irradiation at 385 nm,13%
same,IC50,[2]; [13],~1 µM
same,PSS (E/Z%),"[3]; DMSO (NMR), irradiation at 385 nm",20/80
same,photoconversion on back switching to the E-isomer,[5]; irradiation at 470 nm,almost quantitative
"CNC(=O)c1ccccc1Sc1ccc2c(/N=N/c3ccccn3)n[nH]c2c1 [Compound 2, (E)‐N‐methyl‐2‐((3‐(pyridin‐2‐yldiazenyl)‐1H‐indazol‐6‐yl)thio)benzamide]",IC50,[2]; [12],0.415 µM
same,spectral change upon irradiation,"[5]; 20 µM in DMSO and water with 10 % DMSO, 365, 385, 405, 420 and 470 nm",No spectral change
"CNC(=O)c1ccccc1Sc1ccc2c(/C=C/c3ccccn3)n[nH]c2c1 [Compound 1, Axitinib]",difference in biological activities of Z-axitinib and E-axitinib,[6],43 fold
same,PSS (E/Z%),[7]; 365 nm (E → Z),51/49
same,PSS (E/Z%),[7]; 385 nm (Z → E),88/12
"CNC(=O)c1ccccc1Sc1ccc2c(-c3cccc(/N=N/c4ccccc4)c3)n[nH]c2c1 [Compound 3, (E)‐N‐methyl‐2‐((3‐(3‐(phenyldiazenyl)phenyl)‐1H‐indazol‐6‐yl)thio) benzamide]",k of exponential fit of thermal back isomerization,[1],0.01608
same,residual activity (plateau),[2]; E-isomer in the dark,33%
same,IC50,[2]; [12],1.08 µM
same,IC50,"[2]; PSS after irradiation at 365 nm, 1% DMSO",1.29 µM
same,residual activity (plateau),[2]; after irradiation at 365 nm,5%
same,IC50,[2]; [13],~1 µM
same,PSS (E/Z%),[3]; [14],17/83
same,Z-isomer content in the PSS,[3]; [14],83%
same,photoconversion on back switching to the E-isomer,[5]; irradiation at 435 nm,almost quantitative
"CNC(=O)c1ccccc1Sc1ccc2c(-c3ccc4c(c3)CSc3ccccc3/N=N\4)n[nH]c2c1 [Compound 6, (Z)‐2‐((3‐(12H‐dibenzo[b,f][1,4,5]thiadiazocin‐2‐yl)‐1H‐indazol‐6‐yl)thio)‐N‐methylbenzamide]",k of exponential fit of thermal back isomerization,[1],0.1853
same,IC50,[2]; [8],0.251 µM
same,IC50,[2]; [9],> 10 µM
same,residual activity (plateau),[2]; [10],10%
same,PSS (E/Z%),[3]; [11],25/75
same,E-isomer content in the PSS,"[3]; DMSO, irradiation at 405 nm",25%
